Reference: ChEMBL document CHEMBL3526091, “Pharmacokinetics, metabolism, and excretion of the glycogen synthase kinase-3 inhibitor LY2090314 in rats, dogs, and humans: a case study in rapid clearance by extensive metabolism with low circulating metabolite exposure” (Drug Metab Dispos, 2013)

Legend:
[1] = Drug recovery in Sprague-Dawley rat urine at 5 mg/kg, iv administered for 30 mins during 0 to 168 hrs time interval by radio analysis; format: ADME, organism-based; design: dose 5 mg/kg, dosed compound name [14C]LY2090314, route intravenous; settings: in vivo
[2] = Half life in cancer patient at 60 mg for 60 mins treated 1/8 cycle/day; format: ADME, organism-based; design: dosed compound name LY2090314; settings: human, in vivo
[3] = system: Canis familiaris; test: Tmax in beagle dog assessed as total radioactivity at 5 mg/kg, iv administered for 30 mins; format: ADME, organism-based, Canis lupus familiaris; design: dose 5 mg/kg, dosed compound name [14C]LY2090314, route intravenous; settings: in vivo, 0.5 h
[4] = system: Rattus norvegicus; test: Volume of distribution at steady state in Sprague-Dawley rat assessed as total radioactivity at 5 mg/kg, iv administered for 30 mins; format: ADME, organism-based; design: dose 5 mg/kg, dosed compound name [14C]LY2090314, route intravenous; settings: in vivo, 0.5 h
[5] = Clearance in cancer patient at 10 mg for 60 mins treated 2/1 cycle/day; format: ADME, organism-based; design: dosed compound name LY2090314; settings: human, in vivo
[6] = AUC (0 to infinity) in cancer patient at 60 mg for 60 mins treated 1/8 cycle/day; format: ADME, organism-based; design: dose 60 mg, time infinity, dosed compound name LY2090314; settings: human, plasma
[7] = Plasma protein binding in beagle dog; format: ADME, cell-free, Canis lupus familiaris; design: dosed compound name [14C]LY2090314; settings: read-out: PPB
[8] = Volume of distribution at steady state in cancer patient at 20 mg for 60 mins treated 2/1 cycle/day; format: ADME, organism-based; design: dosed compound name LY2090314; settings: human, in vivo, read-out: Vdss
[9] = Half life in cancer patient at 20 mg for 60 mins treated 2/1 cycle/day; format: ADME, organism-based; design: dosed compound name LY2090314; settings: human, in vivo
[10] = Clearance in Sprague-Dawley rat at 5 mg/kg, iv administered for 30 mins; format: ADME, organism-based; design: dose 5 mg/kg, dosed compound name [14C]LY2090314, route intravenous; settings: in vivo
[11] = Drug recovery in bile duct-cannulated Sprague-Dawley rat assessed as radioactivity in bile during 0 to 12 hrs at 5 mg/kg, iv for 30 mins; format: ADME, organism-based; design: dose 5 mg/kg, dosed compound name [14C]LY2090314, route intravenous; settings: in vivo
[12] = Cmax in cancer patient at 60 mg for 60 mins treated 1/8 cycle/day; format: ADME, organism-based; design: dose 60 mg, dosed compound name LY2090314; settings: human, in vivo
[13] = Drug recovery in beagle dog urine at 5 mg/kg, iv administered for 30 mins during 0 to 12 hrs by radio analysis; format: ADME, organism-based, Canis lupus familiaris; design: dose 5 mg/kg, dosed compound name [14C]LY2090314, route intravenous; settings: in vivo
[14] = Drug metabolism in Mdr1a knockout Sprague-Dawley rat urine at 5 mg/kg, iv administered for 30 mins; format: ADME, organism-based; design: dose 5 mg/kg, dosed compound name LY2090314, route intravenous; settings: in vivo, 0.5 h
[15] = Drug recovery in bile duct-cannulated Sprague-Dawley rat urine at 5 mg/kg, iv administered for 30 mins during 0 to 12 hrs time interval by radio analysis; format: ADME, organism-based; design: dose 5 mg/kg, dosed compound name [14C]LY2090314, route intravenous; settings: in vivo
[16] = Tmax in cancer patient at 40 mg for 60 mins treated 1/8 cycle/day; format: ADME, organism-based; design: dosed compound name LY2090314; settings: human, in vivo
[17] = system: Plasma; test: Drug recovery in beagle dog plasma assessed as radiochemical peak area at 5 mg/kg, iv administered for 30 mins after 0.5 hrs by radio analysis; format: ADME, organism-based, Canis lupus familiaris; design: dose 5 mg/kg, dosed compound name [14C]LY2090314, route intravenous; settings: in vivo
[18] = Volume of distribution at steady state in cancer patient at 80 mg for 60 mins treated 1/8 cycle/day; format: ADME, organism-based; design: dosed compound name LY2090314; settings: human, in vivo, read-out: Vdss
[19] = Volume of distribution at steady state in cancer patient at 10 mg for 60 mins treated 2/1 cycle/day; format: ADME, organism-based; design: dosed compound name LY2090314; settings: human, in vivo, read-out: Vdss
[20] = Cmax in cancer patient at 80 mg for 60 mins treated 1/8 cycle/day; format: ADME, organism-based; design: dose 80 mg, dosed compound name LY2090314; settings: human, in vivo
[21] = Tmax in Sprague-Dawley rat at 5 mg/kg, iv administered for 30 mins; format: ADME, organism-based; design: dose 5 mg/kg, dosed compound name [14C]LY2090314, route intravenous; settings: in vivo
[22] = Clearance in cancer patient at 80 mg for 60 mins treated 1/8 cycle/day; format: ADME, organism-based; design: dosed compound name LY2090314; settings: human, in vivo
[23] = Clearance in cancer patient at 80 mg for 60 mins treated 1/1 cycle/day; format: ADME, organism-based; design: dosed compound name LY2090314; settings: human, in vivo
[24] = AUC (0 to infinity) in cancer patient at 10 mg for 60 mins treated 2/1 cycle/day; format: ADME, organism-based; design: dose 10 mg, time infinity, dosed compound name LY2090314; settings: human, plasma
[25] = Clearance in cancer patient at 60 mg for 60 mins treated 1/1 cycle/day; format: ADME, organism-based; design: dosed compound name LY2090314; settings: human, in vivo
[26] = Half life in cancer patient at 60 mg for 60 mins treated 1/1 cycle/day; format: ADME, organism-based; design: dosed compound name LY2090314; settings: human, in vivo
[27] = Elimination half life in beagle dog at 5 mg/kg, iv administered for 30 mins; format: ADME, organism-based, Canis lupus familiaris; design: dose 5 mg/kg, dosed compound name [14C]LY2090314, route intravenous; settings: in vivo, read-out: beta t1/2 (converted)
[28] = Clearance in cancer patient kidney at 80 to 120 mg for 60 mins; format: ADME, organism-based; design: dosed compound name LY2090314; settings: human, in vivo

Work on `O=C1NC(=O)C(c2cnc3ccccn23)=C1c1cn2c3c(cc(F)cc13)CN(C(=O)N1CCCCC1)CC2` [LY-2090314] yielded a Radiolabel recovery [1] of 0.8%, a half-life [2] of 3.35 h and a Tmax [3] of 0.5 h. It also gave a Vdss [4] of 4.489 L/kg, a clearance [5] of 870 mL/min and an AUC(0-inf) [6] of 1.57 µg·h/mL. For the same compound, the fraction unbound [7] was 0.01, the Vd [8] was 71.5 L and the half-life [9] was 1.92 h. The clearance [10] was 3.45 L/h/kg, the Radiolabel recovery [11] was 1.78% and the Cmax [12] was 1.04 µg/mL. For the same compound, the Radiolabel recovery [13] was 0.35%, the Drug metabolism [14] was “metabolite_detected” and the Radiolabel recovery [15] was 1.82%. It also gave a Tmax [16] of 1 h, a Radiolabel recovery [17] of 82.76% and a Vd [18] of 66 L. The Vd [19] was 101 L, the Cmax [20] was 1.15 µg/mL and the Tmax [21] was 0.5 h. The clearance [22] was 765 mL/min, the clearance [23] was 747 mL/min and the AUC(0-inf) [24] was 0.192 µg·h/mL. The clearance [25] was 617 mL/min, the half-life [26] was 3.15 h and the half-life [27] was 0.662 h. The CL renal at 1 h [28] was 14.2 mL/min.
